Results on 6 molecules are retold here after ChEMBL document CHEMBL4190237, “Recent developments in biological activities of indanones” (Eur J Med Chem, 2017).

One experiment relates to Candida albicans. The experiment can be described thus: Antifungal activity against Candida albicans MTCC 227 assessed as zone of inhibition at 50 mg/ml after 24 hrs by agar disc-diffusion method. The conditions noted are these: MTCC 227, 24 h, read-out: IZ. In kind it is functional. Background: Agar diffusion results depend on both activity and mobility in agar.
The subject of a further experiment is HeLa. As to the kind of experiment: Cytotoxicity against human HeLa cells. It is filed as functional, cell-based.
In the next experiment the test system is K562. As to the kind of experiment: Cytotoxicity against human K562 cells. In kind it is functional, cell-based.
The subject of a further experiment is Jurkat. The experiment can be described thus: Cytotoxicity against human Jurkat cells assessed as cell growth inhibition by MTT assay. In kind it is functional, cell-based. (Formazan colour is commonly taken as a measure of viable cells.)
The target of another experiment is Acetylcholinesterase (Electrophorus electricus, UniProt O42275). The experiment can be described thus: Inhibition of electric eel AChE using acetylthiocholine iodide as substrate after 1 min by Ellman's method. A general note: Ellman's reagent forms a yellow product with free thiols.
Sequence of Acetylcholinesterase (O42275 whole entry): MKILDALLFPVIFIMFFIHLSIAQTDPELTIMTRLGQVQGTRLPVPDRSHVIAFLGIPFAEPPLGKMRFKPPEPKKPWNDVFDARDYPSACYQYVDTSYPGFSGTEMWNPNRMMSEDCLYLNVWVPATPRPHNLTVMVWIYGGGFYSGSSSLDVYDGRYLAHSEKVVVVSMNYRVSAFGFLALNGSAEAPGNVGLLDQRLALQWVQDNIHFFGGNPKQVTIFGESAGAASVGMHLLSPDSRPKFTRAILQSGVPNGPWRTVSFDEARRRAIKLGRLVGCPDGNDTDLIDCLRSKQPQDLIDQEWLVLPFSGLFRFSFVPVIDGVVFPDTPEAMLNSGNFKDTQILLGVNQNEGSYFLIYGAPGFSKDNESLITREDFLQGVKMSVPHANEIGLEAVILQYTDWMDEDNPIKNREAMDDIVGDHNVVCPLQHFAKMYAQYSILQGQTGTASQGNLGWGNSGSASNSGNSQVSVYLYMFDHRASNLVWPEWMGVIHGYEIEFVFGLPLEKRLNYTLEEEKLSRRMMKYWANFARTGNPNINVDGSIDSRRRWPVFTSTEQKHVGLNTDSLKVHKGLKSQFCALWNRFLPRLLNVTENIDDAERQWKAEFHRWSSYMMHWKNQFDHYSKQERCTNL
Another experiment deals with Klebsiella pneumoniae. The experiment can be described thus: Antibacterial activity against Klebsiella pneumoniae assessed as growth inhibition. It is filed as functional.
In experiment [1] the test system is Bovine viral diarrhea virus 1. As to the kind of experiment: Antiviral activity against BVDV infected in MDBK cells assessed as protection against virus-induced cytopathic effect after 3 days by MTS/PMS assay. It is filed as functional, organism-based. Conditions: Bovine viral diarrhea virus isolates and strains, 72 h.

The structures appear in SMILES notation.

Consider `COc1cccc(-c2c(C#N)c(N)n(/N=C3\CCc4cc(OC)c(OC)cc43)c(=O)c2C#N)c1`, for which the zone of inhibition at 50000 µg/mL in the experiment with Candida albicans turned out to be 23 mm.

Turning to `COc1cc(OC)c2c(c1)C(=O)CC2c1ccc(Br)cc1` (configuration not stated), the IC50 is 60 µM with HeLa and 10 µM with K562.

Consider `COc1cc2c(c(N)c1OC)C/C(=C\c1cc(C)c(O)c(C)c1)C2=O`, for which the IC50 in the experiment on Jurkat is 0.001 µM.

On to `NNc1ccc(C(=O)NCCCCCOc2ccc3c(c2)CC(CN2CCC(Cc4ccccc4)CC2)C3=O)cn1` (configuration not stated), for which the IC50 against Acetylcholinesterase was found to be 1.09 µM.

On to `COc1cc2c(cc1OC)C(=O)/C(=C/c1cccc(/C=C/c3ccc4ccc(Cl)cc4n3)c1)C2`, for which, in the experiment on Klebsiella pneumoniae, the “growth inhibition (GI)” value is given as 11.23%.

As for `COc1cc2c(cc1OC)/C(=N/NC(N)=S)CC2`, in experiment [1], the EC50 worked out at 5.35 µM.

In general, IC50 refers to the concentration that gives 50% inhibition. One may read the EC50 as the concentration needed to bring the measured effect to its halfway point.
